In PubChem BioAssay (NCI) one finds GI50 and TGI data, which are given here for 13 compounds.

Structures are written as SMILES.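 Results reflect a 48-hour exposure of cells in 96-well plates to compound at five concentrations. GI50 marks 50% less growth. TGI marks complete inhibition of growth.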 Some results are limits rather than exact numbers.

Test systems include HL-60(TB) leukemia; SNB-75 CNS; TK-10 renal; MALME-3M melanoma; SF-539 CNS; A498 renal; BT-549 breast; CAKI-1 renal; CCRF-CEM leukemia; HCT-15 colon.
Test in all cases: inhibition of tumour cell growth, NCI panel, 48 h

For the compound `CCN(CC)CC(C)Nc1ccc([N+](=O)[O-])c2sc3ccccc3c(=O)c12` (configuration not stated), the GI50 in the test with HL-60(TB) leukemia is 2.82 µM; in the test with SNB-75 CNS, 3.64 µM; in the test with TK-10 renal it was 1.91 µM; in the test on MALME-3M melanoma, 1.31 µM; in the test on SF-539 CNS, 2 µM; in the test with A498 renal, 1.49 µM. Besides, the GI50 was 5.03 µM in the test on BT-549 breast, 0.657 µM with CAKI-1 renal, 2.44 µM in the test with CCRF-CEM leukemia and 1.6 µM in the test on HCT-15 colon. The TGI in the test with HL-60(TB) leukemia worked out at 11.7 µM; in the test with SNB-75 CNS it was 17.2 µM; with TK-10 renal it was 54.2 µM; in the test on MALME-3M melanoma, 3.76 µM; in the test with SF-539 CNS it was 7.56 µM; in the test on A498 renal it was 10.5 µM. The TGI turned out to be 21.4 µM with BT-549 breast, 4.09 µM in the test on CAKI-1 renal, 10.5 µM in the test with CCRF-CEM leukemia and 23.8 µM in the test with HCT-15 colon.
Regarding `C[C@]12CC[C@@H]3c4ccc(OP(=O)(O)O)cc4CC[C@H]3[C@@H]1CCC2=O`, the TGI in the test with HL-60(TB) leukemia, with SNB-75 CNS, in the test with TK-10 renal, with MALME-3M melanoma, in the test with SF-539 CNS and in the test with A498 renal was above 100 µM each time. Besides, the TGI in the test with BT-549 breast, in the test on CAKI-1 renal, with CCRF-CEM leukemia and with HCT-15 colon was above 100 µM each time.
Turning to `CC[C@H]1C=CCC[C@@]2(C[C@@H]3CC[C@@H]4[C@H](C(=O)OCCCCCCCCCCCCCCCC(=O)O)[C@]5(CCC[C@@H](C)O5)NC(=[N+]34)N2)O1`, the TGI in the test with HL-60(TB) leukemia came to 0.636 µM; in the test on TK-10 renal, 8.73 µM; in the test with MALME-3M melanoma, 0.423 µM; in the test on SF-539 CNS, 3.12 µM; in the test on A498 renal it was 1.23 µM; with BT-549 breast, 6.9 µM. Also, the TGI in the test on CAKI-1 renal came out at 3.47 µM; in the test on CCRF-CEM leukemia it was 0.0215 µM; in the test on HCT-15 colon, 7.77 µM.
Regarding `O=S(=O)(O)c1ccc2cccc(N=Nc3c(O)ccc4ccccc34)c2c1`, the TGI with HL-60(TB) leukemia, in the test with SNB-75 CNS, with TK-10 renal, in the test on MALME-3M melanoma, with SF-539 CNS and with A498 renal was above 100 µM in each case. Besides, the TGI in the test with BT-549 breast, in the test on CAKI-1 renal, in the test with CCRF-CEM leukemia and in the test with HCT-15 colon was above 100 µM throughout.
`CC1SC(c2ccccc2)N(CCc2cccs2)C1=O` (configuration not stated): the GI50 is 2.85 µM in the test with HL-60(TB) leukemia; 3.01 µM in the test with SNB-75 CNS; 4.05 µM in the test on TK-10 renal; 5.47 µM with MALME-3M melanoma; 5.14 µM in the test on SF-539 CNS; 2.63 µM in the test with A498 renal. The GI50 was 3.35 µM in the test on BT-549 breast, 3.15 µM in the test on CAKI-1 renal, 3.26 µM in the test on CCRF-CEM leukemia and 3.86 µM in the test with HCT-15 colon. The TGI was 8.67 µM in the test with HL-60(TB) leukemia; 17.8 µM in the test with SNB-75 CNS; 26 µM in the test on TK-10 renal; 26.1 µM in the test with MALME-3M melanoma; 19.2 µM with SF-539 CNS; 14.2 µM in the test on A498 renal. For the same compound, the TGI in the test with BT-549 breast was 12.9 µM; with CAKI-1 renal, 16.2 µM; with CCRF-CEM leukemia, 35.2 µM; with HCT-15 colon, 18.8 µM.
With `COC(=O)C1=CC2CCCC1(O)C(C(C)=O)C2` (configuration not stated), the TGI in the test on HL-60(TB) leukemia was 47.8 µM; with SNB-75 CNS it was above 31.6 µM; with TK-10 renal, above 100 µM; in the test with MALME-3M melanoma, above 100 µM; in the test on SF-539 CNS it was 26.6 µM; in the test on A498 renal, above 100 µM. Further, the TGI was above 100 µM in the test on BT-549 breast, above 100 µM with CAKI-1 renal, above 68.3 µM with CCRF-CEM leukemia and above 100 µM in the test with HCT-15 colon.
For `CCS(=O)(=O)Nc1ccc(Nc2c3ccccc3nc3ccccc23)c(OC)c1`, the TGI in the test on HL-60(TB) leukemia was 0.13 µM; with SNB-75 CNS, 3.01 µM; with MALME-3M melanoma, 2.37 µM; with SF-539 CNS, 4.38 µM; in the test on A498 renal, 2.28 µM; in the test with CAKI-1 renal, 4.08 µM. Moreover, in the test with HCT-15 colon, the TGI was determined as 5.11 µM.
Take `COc1ccc2nc(-n3c(/C=C/c4ccccc4O)nc4ccccc4c3=O)sc2c1`: the TGI with HL-60(TB) leukemia, with SNB-75 CNS, with TK-10 renal, in the test with MALME-3M melanoma, with A498 renal and with BT-549 breast was above 100 µM throughout. For the same compound, the TGI in the test with CAKI-1 renal, with CCRF-CEM leukemia and in the test on HCT-15 colon was above 100 µM throughout.
Take `CCSCCC(N)C(=O)O` (configuration not stated): the TGI with HL-60(TB) leukemia, in the test on SNB-75 CNS, with TK-10 renal, in the test with MALME-3M melanoma, with SF-539 CNS and in the test on A498 renal was above 100 µM throughout. The TGI in the test on BT-549 breast and with HCT-15 colon was above 100 µM in each case.
For `O=C(N/N=C(/c1ccccc1)C(F)(F)F)c1ccncc1`, the TGI in the test with HL-60(TB) leukemia, with SNB-75 CNS, in the test with TK-10 renal, with MALME-3M melanoma, in the test with A498 renal and with BT-549 breast was above 100 µM throughout. Besides, the TGI with CAKI-1 renal, in the test with CCRF-CEM leukemia and in the test on HCT-15 colon was above 100 µM throughout.
With `ONc1ncnc2nc[nH]c12`, the TGI in the test on HL-60(TB) leukemia, in the test on SNB-75 CNS, in the test on TK-10 renal, in the test on MALME-3M melanoma, in the test with SF-539 CNS and in the test with CAKI-1 renal was above 100 µM each time. The TGI in the test with CCRF-CEM leukemia and with HCT-15 colon was above 100 µM each time.
With `CCOC(=O)CSc1nc(N)c2c(-c3ccc(OC)c(OC)c3)c3c(nc2n1)CCCC3`, the TGI with HL-60(TB) leukemia is above 100 µM; in the test on SNB-75 CNS, 32.6 µM; in the test with TK-10 renal it was above 100 µM; with MALME-3M melanoma, above 100 µM; with BT-549 breast, above 100 µM; with CAKI-1 renal, above 100 µM. The TGI in the test with CCRF-CEM leukemia and in the test with HCT-15 colon was above 100 µM each time.
For the compound `CCC1C(C#N)=C(N)OC2=C1C(=O)CC(C)(C)C2` (configuration not stated), the TGI in the test on HL-60(TB) leukemia, in the test with TK-10 renal, with MALME-3M melanoma, in the test on SF-539 CNS, in the test with A498 renal and in the test on BT-549 breast was above 100 µM each time. Besides, the TGI with CAKI-1 renal, with CCRF-CEM leukemia and with HCT-15 colon was above 100 µM in each case.
